Experimental findings from patent US8846876B2, “Compositions containing, methods involving, and uses of non-natural amino acids and polypeptides” (Abrx, Inc., priority 2004, dated 2014) are described below.

Data set [1] in a line: Oxime stability pH 4-8 (testing non-natural amino acids). The format is physicochemical. On the procedure: (§1) This example provides results of four tests that were conducted on certain illustrative non-natural amino acids as an aid for predicting their properties for incorporation into non-natural amino acid polypeptides.
The test system of another data set is RS. The data set is described as follows: RS test. On the procedure:
as §1

As to `N[C@@H](Cc1ccc2c(c1)NC(=O)C2=O)C(=O)O`, the “Oxime Stability pH 4-8” value in data set [1] is “— —”.

With `CC(=O)c1ccc(C[C@H](N)C(=O)O)cc1`, the RS test entry in the data set on RS was “√”.

`CC(=O)CC(=O)c1ccc(C[C@H](N)C(=O)O)cc1`: the RS test result in the data set on RS is on record as “Meta- bolized”.

With `CC(=O)N/N=C/c1ccc(C[C@H](N)C(=O)O)cc1`, the RS test entry in the data set on RS is on record as “√”.
